Assay results from the supplement of paper PMC10307832.

Key:
Assay in all cases: relative viability (nuclei count vs DMSO), 5 days (fraction); higher = more cells survive
[1] = compound: CS(=O)(=O)N1CCN(Cc2cc3nc(-c4cccc5[nH]ncc45)nc(N4CCOCC4)c3s2)CC1 [Pictilisib] + N=C(N)NC(=N)NCCc1ccccc1 [Phenformin] (partner 250 µM)
Outline: (§1)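 A single step with final 0.05% Triton X-100, 1% formaldehyde and 1 ug/ml Hoechst fixed the cells and stained nuclei 5 days after treatment. Lung cancer cell lines in 1536-well plates had been treated by pin tool the day after seeding with one drug alone or a fixed anchor-drug dose plus five library-drug doses (not always all listed) in √10 steps, and nuclei were counted on 4× images. Relative viability is the ratio of nuclei in treated wells to nuclei in vehicle wells, taken as the median of duplicate plates.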

[2] = compound: NC1(c2ccc(-c3nc4ccn5c(=O)[nH]nc5c4cc3-c3ccccc3)cc2)CCC1 [MK-2206] + CC(=O)c1c(C)c2cnc(Nc3ccc(N4CCNCC4)cn3)nc2n(C2CCCC2)c1=O [Palbociclib] (partner 0.5 µM)
Outline: as §1

[3] = compound: NC1(c2ccc(-c3nc4ccn5c(=O)[nH]nc5c4cc3-c3ccccc3)cc2)CCC1 [MK-2206] + CS(=O)(=O)N1CCN(Cc2cc3nc(-c4cccc5[nH]ncc45)nc(N4CCOCC4)c3s2)CC1 [Pictilisib] (partner 1 µM)
Outline: as §1

[4] = compound: CS(=O)(=O)N1CCN(Cc2cc3nc(-c4cccc5[nH]ncc45)nc(N4CCOCC4)c3s2)CC1 [Pictilisib] + O=C(CCCCCCC(=O)Nc1ccccc1)NO [Vorinostat] (partner 1 µM)
Outline: as §1

[5] = compound: NC1(c2ccc(-c3nc4ccn5c(=O)[nH]nc5c4cc3-c3ccccc3)cc2)CCC1 [MK-2206] + O=C(c1cc(Cc2n[nH]c(=O)c3ccccc23)ccc1F)N1CCN(C(=O)C2CC2)CC1 [Olaparib] (partner 8 µM)
Outline: as §1

Row | Cell Line | relative viability ([1]; first compound 0.02 µM) | relative viability ([1]; first compound 0.06325 µM) | relative viability ([1]; first compound 0.6325 µM) | relative viability ([1]; first compound 2 µM) | relative viability ([2]; first compound 0.01 µM) | relative viability ([2]; first compound 0.03162 µM) | relative viability ([2]; first compound 0.3162 µM) | relative viability ([2]; first compound 1 µM) | relative viability ([3]; first compound 0.01 µM) | relative viability ([3]; first compound 0.03162 µM) | relative viability ([3]; first compound 0.3162 µM) | relative viability ([3]; first compound 1 µM) | relative viability ([4]; first compound 0.02 µM) | relative viability ([4]; first compound 0.06325 µM) | relative viability ([4]; first compound 0.6325 µM) | relative viability ([4]; first compound 2 µM) | relative viability ([5]; first compound 0.01 µM) | relative viability ([5]; first compound 0.03162 µM) | relative viability ([5]; first compound 0.3162 µM) | relative viability ([5]; first compound 1 µM)
1 | NCI-H1944 | 0.206 | 0.184 | 0.137 | 0.141 | 0.338 | 0.332 | 0.3 | 0.296 | 0.361 | 0.346 | 0.361 | 0.34 | 0.61 | 0.494 | 0.375 | 0.201 | 0.388 | 0.439 | 0.429 | 0.478
2 | NCI-H1651 | 0.331 | 0.36 | 0.268 | 0.261 | 0.506 | 0.536 | 0.486 | 0.482 | 0.672 | 0.655 | 0.632 | 0.408 | 0.519 | 0.551 | 0.538 | 0.344 | 0.178 | 0.154 | 0.174 | 0.181
3 | EBC-1 |  |  |  |  |  |  |  |  | 0.459 | 0.314 | 0.176 | 0.164 |  |  |  |  | 0.362 | 0.685 | 0.484 | 0.175
4 | COR-L 105 | 0.584 | 0.508 | 0.362 | 0.272 | 0.428 | 0.436 | 0.441 | 0.408 | 0.381 | 0.414 | 0.408 | 0.425 | 0.91 | 0.874 | 0.594 | 0.606 | 0.774 | 0.7 | 0.57 | 0.749
5 | RERF-LC-KJ | 0.409 | 0.35 | 0.343 | 0.307 | 0.954 | 1.13 | 1 | 1.06 | 0.586 | 0.481 | 0.553 | 0.445 | 0.732 | 0.699 | 0.573 | 0.461 | 0.885 | 0.93 | 0.874 | 0.81
6 | NCI-H1793 | 0.387 | 0.38 | 0.221 | 0.203 | 0.277 | 0.329 | 0.272 | 0.252 | 0.323 | 0.31 | 0.307 | 0.284 | 0.712 | 0.724 | 0.379 | 0.243 | 0.87 | 1.02 | 0.791 | 0.766
7 | CAL-12T | 0.612 | 0.578 | 0.467 | 0.239 | 0.383 | 0.277 | 0.543 | 0.411 | 0.58 | 0.455 | 0.465 | 0.229 | 0.755 | 0.664 | 0.629 | 0.283 | 0.81 | 0.666 | 0.703 | 0.714
8 | NCI-H1993 | 0.527 | 0.504 | 0.626 | 0.573 | 0.638 | 0.74 | 0.545 | 0.471 | 0.85 | 0.742 | 0.742 | 0.86 | 0.713 | 0.639 | 0.494 | 0.436 | 0.941 | 1.05 | 0.99 | 0.652
9 | LXF-289 | 0.508 | 0.557 | 0.452 | 0.436 | 0.581 | 0.628 | 0.594 | 0.576 | 0.755 | 0.821 | 0.748 | 0.705 | 0.885 | 0.696 | 0.763 | 0.557 | 1.05 | 1.04 | 1.09 | 1.06
10 | NCI-H1792 | 0.343 | 0.257 | 0.128 | 0.124 | 0.631 | 0.751 | 0.609 | 0.653 | 0.27 | 0.271 | 0.251 | 0.283 |  |  |  |  | 0.497 | 0.514 | 0.532 | 0.264
11 | LU99A | 0.911 | 0.869 | 0.791 | 0.532 | 0.41 | 0.419 | 0.413 | 0.35 | 0.327 | 0.314 | 0.261 | 0.289 | 0.548 | 0.593 | 0.327 | 0.225 | 0.283 | 0.231 | 0.251 | 0.287
12 | A549 | 0.235 | 0.177 | 0.155 | 0.0936 |  |  |  |  | 0.496 | 0.494 | 0.394 | 0.304 |  |  |  |  | 0.389 | 0.439 | 0.333 | 0.125
13 | NCI-H2342 | 0.581 | 0.586 | 0.472 | 0.355 | 0.58 | 0.51 | 0.469 | 0.473 |  |  |  |  | 0.672 | 0.814 | 0.695 | 0.529 | 0.444 | 0.471 | 0.386 | 0.353
14 | NCI-H1648 |  |  |  |  | 0.229 | 0.269 | 0.301 | 0.331 |  |  |  |  | 0.393 | 0.378 | 0.239 | 0.19 | 1.01 | 1.11 | 0.966 | 0.769
15 | NCI-H1563 | 0.663 | 0.692 | 0.56 | 0.501 |  |  |  |  | 0.625 | 0.665 | 0.633 | 0.626 |  |  |  |  |  |  |  | 
16 | NCI-H522 | 0.749 | 0.676 | 0.613 | 0.603 | 1.04 | 1.12 | 1.05 | 1.09 |  |  |  |  | 0.857 | 0.866 | 0.757 | 0.608 | 0.668 | 0.624 | 0.629 | 0.666
17 | NCI-H1623 | 0.646 | 0.61 | 0.54 | 0.274 |  |  |  |  |  |  |  |  |  |  |  |  |  |  |  | 
18 | NCI-H596 | 0.697 | 0.697 | 0.375 | 0.305 |  |  |  |  | 0.446 | 0.386 | 0.324 | 0.345 | 0.545 | 0.618 | 0.371 | 0.709 | 0.745 | 0.698 | 0.732 | 0.688
19 | NCI-H1299 |  |  |  |  |  |  |  |  | 0.832 | 0.728 | 0.744 | 0.769 |  |  |  |  | 0.967 | 1.04 | 1.05 | 1.02
20 | Calu-6 |  |  |  |  |  |  |  |  | 0.93 | 0.895 | 0.86 | 0.873 |  |  |  |  |  | 0.592 | 0.653 | 0.614
